In patent publication US8598357B2, “Benzodioxole piperidine compounds” (Hoffmann-La Roche Inc., priority 2011, dated 2013):
Where two headings read alike, the source gives them in different places.

What was measured:
5-HT2A receptor = 5-HT2A receptor (Homo sapiens (Human), UniProt P28223); test: Radioligand binding assay ([3H]-ketanserin) on membranes of HEK293 EBNA cells expressing human 5-HT2A receptor
Method: (§1) HEK293 EBNA cells were transiently transfected with expression plasmids encoding for the human D2 or D3 or for the human 5-HT2A receptor, respectively. The cells were harvested 48 h post-transfection, washed three times with cold PBS and stored at −80° C. prior to use. The pellet was suspended in cold 50 mM Tris-HCl buffer containing 10 mM EDTA (pH 7.4) and was homogenized with a Polytron (Kinematica AG, Basel, Switzerland) for 20-30 sec at 12.000 rpm. After centrifugation at 48.000×g for 30 min at 4° C., the pellet was resuspended in cold 10 mM Tris-HCl buffer containing 0.1 mM EDTA (pH 7.4), homogenized, and centrifuged as above. This pellet was further resuspended in a smaller volume of ice cold 10 mM Tris-HCl buffer containing 0.1 mM EDTA (pH 7.4) and homogenized with a Polytron for 20-30 sec at 12.000 rpm. The protein content of this homogenate was determined with the Bio-Rad (Bradford) Protein Assay (Biorad Laboratories GmbH, München, Germany) according to the instructions of the manufacturer using gamma globulin as the standard. This homogenate was stored at −80° C. in aliquots and thawed immediately prior to use.
(§2) Aliquots of membrane preparations were thawed at RT, resuspended in assay buffer (D2, D3: 50 mM Tris-HCl, 120 mM NaCl, 5 mM MgCl2, 1 mM EDTA, 5 mM KCl, 1.5 mM CaCl2, pH=7.4; 5-HT2A: 50 mM Tris-HCl, 10 mM MgCl2, 1 mM EGTA, pH=7.4), homogenized with a Polytron for 20-30 sec at 12.000 rpm and adjusted to a final concentration of approximately 7.5 μg protein/well (D2, D3) and 15 μg protein/well (5-HT2A), respectively.
(§3) The nonspecific binding was determined with equally composed reaction mixtures in the presence of 10 μM unlabelled spiperone. Per well 45 μl of Microscint 40 (Perkin Elmer, Schwerzenbach, Switzerland) was added, plates for sealed, shaken for 20 min and counted for 3 min on a Topcount Microplate Scintillation Counter (Can berra Packard SA, Ziirich, Switzerland) with quenching correction.
(§4) The CPM value for each duplicate of a concentration of competing compound was averaged (y1), then the % specific binding was calculated according to the equation (((y1−non-specific)/(total binding−non-specific))×100). Graphs were plotted with the % specific binding using XLfit, a curve fitting program that iteratively plots the data using Levenberg-Marquardt algorithm. The single site competition analysis equation used was y=A+((B−A)/(1+((x/C)D))), where y is the % specific binding, A is the minimum y, B is the maximum y, C is the IC50, x is the log 10 of the concentration of the competing compound and D is the slope of the curve (the Hill Coefficient). […] The affinity constant (K) was calculated using the Cheng-Prusoff equation Ki=(IC50/1+([L]/Kd), where [L] is the concentration of radioligand and Kd is the dissociation constant of the radioligand at the receptor as determined by the saturation isotherm.

D2 receptor = D2 receptor (Homo sapiens (Human), UniProt P14416); test: Radioligand binding assay ([3H]-spiperone) on membranes of HEK293 EBNA cells expressing human D2 receptor; settings: human receptor in HEK293 EBNA cells; 0.7 nM [3H]-spiperone
Method: as §1, §2, §3, §4

D3 receptor = D3 receptor (Homo sapiens (Human), UniProt P35462); test: Radioligand binding assay ([3H]-spiperone) on membranes of HEK293 EBNA cells expressing human D3 receptor
Method: as §1, §2, §3, §4

[1] = read-out: D3 Ki, human receptor in HEK293 EBNA cells, 0.5 nM [3H]-spiperone
[2] = read-out: 5HT2A Ki, human receptor in HEK293 EBNA cells, 1.1 nM [3H]-ketanserin

D2 receptor, sequence (P14416 whole entry): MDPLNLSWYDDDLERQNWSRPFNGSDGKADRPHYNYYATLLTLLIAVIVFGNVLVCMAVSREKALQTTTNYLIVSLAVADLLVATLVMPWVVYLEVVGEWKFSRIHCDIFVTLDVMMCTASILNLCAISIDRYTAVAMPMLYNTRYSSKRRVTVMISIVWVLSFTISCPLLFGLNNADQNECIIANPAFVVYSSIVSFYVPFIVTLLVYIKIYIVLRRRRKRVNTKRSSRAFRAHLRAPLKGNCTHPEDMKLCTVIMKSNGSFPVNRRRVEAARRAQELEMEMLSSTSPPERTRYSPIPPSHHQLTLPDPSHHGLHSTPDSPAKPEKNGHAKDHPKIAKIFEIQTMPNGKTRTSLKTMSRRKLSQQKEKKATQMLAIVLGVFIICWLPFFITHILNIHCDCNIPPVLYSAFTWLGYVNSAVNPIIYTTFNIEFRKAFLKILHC
D3 receptor, sequence (P35462 whole entry): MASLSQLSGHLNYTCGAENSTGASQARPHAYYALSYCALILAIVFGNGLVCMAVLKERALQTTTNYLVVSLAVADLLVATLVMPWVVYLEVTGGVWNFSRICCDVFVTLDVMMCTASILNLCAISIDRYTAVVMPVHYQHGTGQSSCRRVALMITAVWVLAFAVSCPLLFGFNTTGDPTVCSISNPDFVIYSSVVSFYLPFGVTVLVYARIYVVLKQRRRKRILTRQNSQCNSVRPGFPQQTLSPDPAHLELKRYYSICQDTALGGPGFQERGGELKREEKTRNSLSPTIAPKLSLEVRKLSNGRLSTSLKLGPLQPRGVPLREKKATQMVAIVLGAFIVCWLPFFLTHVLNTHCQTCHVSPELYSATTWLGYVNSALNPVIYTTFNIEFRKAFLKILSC

## O=C(N[C@H]1CC[C@H](CCN2CCC(c3cccc4c3OCO4)CC2)CC1)C1CCC1 [Example 54, Cyclobutanecarboxylic acid-trans-{4-[2-(4-benzo[1,3]dioxol-4-yl-piperidin-1-yl)-ethyl]-cyclohexyl}-amide]
5-HT2A receptor; read-out: 5HT2A Ki
  Ki: 16.9 nM
D2 receptor
  Ki: 100 nM
D3 receptor; [1]
  Ki: 8 nM

## O=C(C[C@H]1CCCOC1)N[C@H]1CC[C@H](CCN2CCC(c3cccc4c3OCO4)CC2)CC1 [Example 43, Trans-N-{4-[2-(4-Benzo[1,3]dioxol-4-yl-piperidin-1-yl)-ethyl]-cyclohexyl}-2-(R)-tetrahydro-pyran-3-yl-acetamide]
5-HT2A receptor; [2]
  Ki: 19.8 nM
D2 receptor
  Ki: 408 nM
D3 receptor; [1]
  Ki: 7.8 nM

## O=C(N[C@H]1CC[C@H](CCN2CCC(c3cccc4c3OCO4)CC2)CC1)C1(C(F)(F)F)CC1 [Example 50, Trifluoromethyl-cyclopropanecarboxylic acid-trans-N-{4-[2-(4-benzo[1,3]dioxol-4-yl-piperidin-1-yl)-ethyl]-cyclohexyl}-amide]
5-HT2A receptor; [2]
  Ki: 19 nM
D2 receptor
  Ki: 246 nM
D3 receptor; [1]
  Ki: 40.9 nM

## O=C(N[C@H]1CC[C@H](CCN2CCC(c3cccc4c3OCO4)CC2)CC1)C1CCCO1 (stereo partly drawn) [Example 46, Tetrahydro-furan-2-carboxylic acid-trans-{4-[2-(4-benzo[1,3]dioxol-4-yl-piperidin-1-yl)-ethyl]-cyclohexyl}-amide]
5-HT2A receptor; [2]
  Ki: 14.4 nM
D2 receptor
  Ki: 464 nM
D3 receptor; [1]
  Ki: 47.6 nM

## O=C(N[C@H]1CC[C@H](CCN2CCC(c3cccc4c3OCO4)CC2)CC1)C1(O)CCCCC1 [Example 66, 1-Hydroxy-cyclohexanecarboxylic acid-trans-N-{4-[2-(4-benzo[1,3]dioxol-4-yl-piperidin-1-yl)-ethyl]-cyclohexyl}-amide]
5-HT2A receptor; read-out: 5HT2A Ki
  Ki: 3.93 nM
D2 receptor
  Ki: 219 nM
D3 receptor; [1]
  Ki: 17.5 nM

## O=C(N[C@H]1CC[C@H](CCN2CCC(c3cccc4c3OCO4)CC2)CC1)c1ccnc2ccccc12 [Example 57, Quinoline-4-carboxylic acid-trans-N-{4-[2-(4-benzo[1,3]dioxol-4-yl-piperidin-1-yl)-ethyl]-cyclohexyl}-amide]
5-HT2A receptor; [2]
  Ki: 23.1 nM
D2 receptor
  Ki: 370 nM
D3 receptor; [1]
  Ki: 6.16 nM

## O=C(C[C@H]1CCCCO1)N[C@H]1CC[C@H](CCN2CCC(c3cccc4c3OCO4)CC2)CC1 [Example 41, Trans-N-{4-[2-(4-Benzo[1,3]dioxol-4-yl-piperidin-1-yl)-ethyl]-cyclohexyl}-2-(R)-tetrahydro-pyran-2-yl-acetamide]
5-HT2A receptor; read-out: 5HT2A Ki
  Ki: 12.6 nM
D2 receptor
  Ki: 491 nM
D3 receptor; [1]
  Ki: 7.65 nM

## CO[C@H](C)C(=O)N[C@H]1CC[C@H](CCN2CCC(c3cccc4c3OCO4)CC2)CC1 [Example 34, Trans-(R)—N-{4-[2-(4-Benzo[1,3]dioxol-4-yl-piperidin-1-yl)-ethyl]-cyclohexyl}-2-methoxy-propionamide]
5-HT2A receptor; [2]
  Ki: 9.57 nM
D2 receptor
  Ki: 504 nM
D3 receptor; [1]
  Ki: 27.8 nM

## O=C(C[C@H]1COCCO1)N[C@H]1CC[C@H](CCN2CCC(c3cccc4c3OCO4)CC2)CC1 (single isomer, unassigned) [Example 4, Trans-N-{4-[2-(4-Benzo[1,3]dioxol-4-yl-piperidin-1-yl)-ethyl]-cyclohexyl}-2-(S) or (R)-[1,4]dioxan-2-yl-acetamide]
5-HT2A receptor
  Ki: 11.9 nM
D3 receptor
  Ki: 9.79 nM

## O=C(C[C@@H]1COCCO1)N[C@H]1CC[C@H](CCN2CCC(c3cccc4c3OCO4)CC2)CC1 (single isomer, unassigned) [Example 5, Trans-N-{4-[2-(4-Benzo[1,3]dioxol-4-yl-piperidin-1-yl)-ethyl]-cyclohexyl}-2-(R) or (S)-[1,4]dioxan-2-yl-acetamide]
5-HT2A receptor
  Ki: 17 nM
D3 receptor
  Ki: 9.5 nM

## O=C(CC1COCCO1)N[C@H]1CC[C@H](CCN2CCC(c3cccc4c3OCO4)CC2)CC1 (stereo partly drawn) [Example 3, Trans-N-{4-[2-(4-Benzo[1,3]dioxol-4-yl-piperidin-1-yl)-ethyl]-cyclohexyl}-2-[1,4]dioxan-2-yl-acetamide]
5-HT2A receptor; read-out: 5HT2A Ki
  Ki: 13.9 nM
D3 receptor; [1]
  Ki: 8.88 nM
